# Test system: mesenchymal stem cells
# Experiment: Sandwich ELISA of cTnT after ex vivo differentiation of rat MSCs by PTK inhibitor treatment
# Assay type: cell-based
# Conditions: rat MSCs cultured 9 days with 1 μM or 10 μM compound
# Method: For the second subculture, MSCs were dispensed on a 60 mm plate at 2×10^5 cells/ml using the identical medium as above, treated with N-(3-bromophenyl)-6,7-diethoxyquinazoline-4-amine (Sigma), a protein tyrosine kinase (PTK) inhibitor, at a final concentration of 1 μM or 10 μM. The cells were cultured for 9 days, wherein the medium was replaced once every three days with a fresh medium containing the aforementioned compound.
# 100 ng of capture antibodies were bound to polyvinyl chloride (PVC) and microtiter high-binding plate (96 wells) at 4° C. overnight. The plate was washed twice with PBS, capture antibodies were blocked with PBS containing 5% BSA overnight under moist air at the room temperature. The plate was washed twice with PBS, and 5 ug of cell lysates together with blocking buffer was added to each well. The plate was incubated at 37° C. for 1.5 hours. The plate was washed 4 times with PBS containing 0.02% Tween-20. Upon adding detector antibodies, the plate was incubated under moist air and the room temperature for 2 hours, and washed 4 times with PBS containing 0.02% Tween-20. […] After 10 minutes, the reaction was stopped by adding 25 ul of 0.1M H2SO4, then the absorbance at 450 nm was immediately measured with an ELISA plate reader (Bio-Rad). […]
structure (smiles),measurement,setting,value
"CCOc1cc2ncnc(Nc3cccc(Br)c3)c2cc1OCC [compound #23, N-(3-bromophenyl)-6,7-diethoxyquinazoline-4-amine]","differentiation into myocardial cells (sandwich ELISA, FIG. 13)",,increases depending on the concentration
same,expression ratio of cardiac troponin T (cTnT),"sandwich ELISA, FIG. 13",increasing expression ratio of cardiac troponin T (cTnT) by the method dependent on dosage

# Reference: patent US20130164847A1, “USE OF A PROTEIN TYROSINE KINASE INHIBITOR FOR INDUCING THE DIFFERENTIATION OF MESENCHYMAL STEM CELLS INTO CARDIOGENIC CELLS” (PHARMICELL. CO., LTD., priority 2010, published 2013)
